# Measurements published in PMC5025758 (Nature Communications, 2016).
# Target: KasA (Mycobacterium tuberculosis, UniProt P9WQD9)
# Assay type: cell-based
# KasA, sequence (P9WQD9 whole entry): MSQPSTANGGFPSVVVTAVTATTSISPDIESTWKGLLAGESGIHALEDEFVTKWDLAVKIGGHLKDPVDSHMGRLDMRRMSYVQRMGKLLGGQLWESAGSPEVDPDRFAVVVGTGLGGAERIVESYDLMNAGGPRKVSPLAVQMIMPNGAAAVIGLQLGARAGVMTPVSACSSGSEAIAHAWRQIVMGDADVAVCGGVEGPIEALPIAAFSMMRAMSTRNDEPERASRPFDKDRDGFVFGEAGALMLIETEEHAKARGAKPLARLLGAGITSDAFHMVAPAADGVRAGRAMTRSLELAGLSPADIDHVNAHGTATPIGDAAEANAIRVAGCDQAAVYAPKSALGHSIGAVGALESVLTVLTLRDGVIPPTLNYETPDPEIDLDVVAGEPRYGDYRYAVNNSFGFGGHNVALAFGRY
structure (smiles),measurement,value
"CCCCS(=O)(=O)Nc1ccc2cnn(CCCN)c2c1 [compound 1, tagged analogue (1)]","bead-immobilized probe captures KasA from M. bovis BCG extract, competed by free",only three proteins were efficiently competed off the beads by excess GSK3011724A: KasA
